Assays:
hERG potassium channel = target: T1, hERG potassium channel (Homo sapiens, UniProt Q12809); assay: hERG potassium channel inhibition activity assay (Qpatch, CHO-hERG cells); format: cell-based; details: Qpatch whole-cell, highest test concentration 40 μM
T1 construct: expressed in transfected cells; host or cells: CHO
Experimental: Test Example 8. hERG Potassium Channel Inhibition Activity Assay
7.1.1 CHO-hERG cells were cultured in a 175 cm^2 culture flask. After the cell density reached 60-80%, the culture solution was removed. The cells were washed with 7 mL of PBS once, and dissociated with 3 mL of Detachin.
7.1.2 After completion of dissociation, the cells were neutralized with 7 mL of culture solution. The solution was centrifuged, and the supernate was removed. The cells were resuspended in 5 mL of culture solution. The cell indensity is ensured as 2˜5×10^6/mL.
Single cell sealing impedance and formation of whole-cell mode were automatically performed by Qpatch instrument. After obtaining the whole-cell recording mode, the cell was clamped at −80 mV. The cell first underwent pre-voltage of −50 mV for 50 msec, then underwent depolarization stimulation at +40 mV for 5 sec, and then underwent repolarization at −50 mV for 5 sec, and then the voltage returned to −80 mV The cell underwent the stimulation at the voltage every 15 sec. The data were recorded for 2 min, then extracellular fluid was administrated, and then the data were recorded for 5 min. Then, the administration process begun. The concentration of the test compound started from the lowest concentration, and each test concentration was administrated for 2.5 min. At least three cells (n≥3) were tested for each concentration.
4.1 20 mM mother liquor of the compound was diluted with extracellular fluid. […] of extracellular fluid was added to 5 μL of 20 mM mother liquor of the compound to obtain a concentration of 40 μM (500-fold dilution). The solution was subjected to a 3-fold serial dilution with extracellular fluid containing 0.2% DMSO to obtain a required final concentration.
This concentration of DMSO had no effect on hERG potassium channel.
The experimental data was analyzed by XLFit software.

BALB/c mice = assay: Taste sensitivity assay in BALB/c mice (quinine solution intake); format: in vivo; details: 30 mpk; for Solution consumption of single mouse, Quinine solution: 3 mmol/L quinine hydrochloride, 30 min; for Dysgeusia rate: quinine solution vs solvent groups (20% HP-B-CD)
Experimental: Test Example 9. Taste Sensitivity Assay in BALB/c Mice
In this assay, compounds with less toxic and side effects on animal taste were screened by quinine bitter solution experiment.
BALB/c mice, 6 to 8 weeks old, ♂, purchased from Shanghai SIPPR-BK Laboratory Animal Co., Ltd.
BALB/c mice were randomly grouped according to body weight, and were deprived of water 12 to 16 hours before administration with no fasting.
An appropriate amount of quinine monohydrochloride dihydrate was weighed and formulated into an aqueous solution quinine hydrochloride (concentration: 3 mmol/L) with ultrapure water for later use.
An appropriate amount of the test compound was weighed and formulated into the target concentration with the corresponding solvent according to the experimental design for later use.
Administration and fasting: On the day of the experiment, the animals were weighed and fasted, bedding was changed, and the compounds were administered according to the experimental design.
1. The corresponding clean mouse drinking bottle was rinsed 2 to 3 times with ultrapure water and the formulated 3 mmol/L aqueous solution of quinine hydrochloriderespectively. The bottle was filled and weighed, and the weight was recorded as Wi0.
2. According to the experimental design, a certain period after administration, the filled bottle was gently placed in the corresponding mouse cage, and the timing was started. After 30 min, the bottle was gently taken out and weighed, and the weight was recorded as Wi30.
3. Calculation of solution consumption of animals in each group: ΔWW(g)=[…]; calculation of solution consumption of single mouse: ΔpWW(g)=ΔWW/N, N is the number of animals in each group.
4. Dysgeusia rate=(ΔpWW of the group in which the drinking water was the aqueous solution of quinine hydrochlorideand the test compound was administered at the same time −ΔpWW of the group in which the drinking water was aqueous solution of quinine hydrochlorideand the solvent control was administered at the same time)/(ΔpWW of the group in which the drinking water was ultrapure water and the solvent control was administered at the same time −ΔpWW of the group in which the drinking water was aqueous solution of quinine hydrochloride and the solvent control was administered at the same time)×100%. Data processing was performed with software such as Excel.

T1 sequence (Q12809 whole entry): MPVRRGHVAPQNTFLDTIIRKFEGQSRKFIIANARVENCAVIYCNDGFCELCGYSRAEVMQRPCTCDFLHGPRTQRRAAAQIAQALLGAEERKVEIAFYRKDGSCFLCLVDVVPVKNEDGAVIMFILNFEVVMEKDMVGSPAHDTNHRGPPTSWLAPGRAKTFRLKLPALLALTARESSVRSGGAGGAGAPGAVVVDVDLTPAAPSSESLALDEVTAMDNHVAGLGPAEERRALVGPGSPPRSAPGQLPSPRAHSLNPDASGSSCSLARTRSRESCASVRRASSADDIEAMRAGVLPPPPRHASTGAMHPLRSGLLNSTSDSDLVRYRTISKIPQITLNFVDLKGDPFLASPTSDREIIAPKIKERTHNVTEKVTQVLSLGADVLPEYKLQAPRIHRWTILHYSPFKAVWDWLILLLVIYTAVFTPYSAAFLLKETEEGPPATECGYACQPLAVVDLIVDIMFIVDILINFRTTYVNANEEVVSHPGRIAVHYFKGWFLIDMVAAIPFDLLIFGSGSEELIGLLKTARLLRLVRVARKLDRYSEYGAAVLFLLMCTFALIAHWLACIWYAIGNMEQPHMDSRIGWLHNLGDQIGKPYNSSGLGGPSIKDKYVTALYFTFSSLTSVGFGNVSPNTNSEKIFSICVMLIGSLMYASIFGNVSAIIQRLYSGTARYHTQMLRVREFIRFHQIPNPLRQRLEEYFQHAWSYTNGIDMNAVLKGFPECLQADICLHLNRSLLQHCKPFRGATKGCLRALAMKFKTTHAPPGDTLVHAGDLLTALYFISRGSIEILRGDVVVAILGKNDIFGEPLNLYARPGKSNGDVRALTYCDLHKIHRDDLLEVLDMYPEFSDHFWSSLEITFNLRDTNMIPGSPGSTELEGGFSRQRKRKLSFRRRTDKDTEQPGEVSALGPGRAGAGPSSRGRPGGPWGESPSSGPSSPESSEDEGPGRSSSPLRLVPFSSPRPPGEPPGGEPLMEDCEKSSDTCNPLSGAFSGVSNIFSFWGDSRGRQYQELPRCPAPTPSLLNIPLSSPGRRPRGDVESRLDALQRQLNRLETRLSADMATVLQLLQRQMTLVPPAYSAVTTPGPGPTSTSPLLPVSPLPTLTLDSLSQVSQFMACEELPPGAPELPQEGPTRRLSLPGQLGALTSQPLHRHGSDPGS

| SMILES | IC50 (hERG potassium channel) | Solution consumption of single mouse, Quinine solution (BALB/c mice) | Dysgeusia rate (BALB/c mice) |
| --- | --- | --- | --- |
| N#Cc1cc2n(CC(=O)Nc3ccc(F)cn3)c(=O)c3ccc(C(F)(F)F)nc3n2n1 [Example 68, 2-(2-Cyano-5-oxo-8-(trifluoromethyl)pyrazolo[1,5-a]pyrido[3,2-e]pyrimidin-4(5H)-yl)-N-(5-fluoropyridin-2-yl)acetamide] | 18.4 µM | 0.056 g | −2.26% |
| N#Cc1cnn2c3nc(C(F)(F)F)ccc3c(=O)n(CC(=O)Nc3ccc(F)cn3)c12 [Example 80, 2-(3-Cyano-5-oxo-8-(trifluoromethyl)pyrazolo[1,5-a]pyrido[3,2-e]pyrimidin-4(5H)-yl)-N-(5-fluoropyridin-2-yl)acetamide] | > 20 µM |  |  |
| O=C(Cn1c(=O)c2ccc(C(F)(F)F)nc2n2nc(Br)cc12)Nc1ccc(F)cn1 [Example 61-A, 2-(2-bromo-5-oxo-8-(trifluoromethyl)pyrazolo[1,5-a]pyrido[3,2-e]pyrimidin-4(5H)-yl)-N-(5-fluoropyridin-2-yl)acetamide] | > 10 µM | 0.048 g | −3.77% |
| O=C(Cn1c(=O)c2ccc(C(F)(F)F)nc2n2nccc12)Nc1ccc(F)cn1 [Example 78, N-(5-Fluoropyridin-2-yl)-2-(5-oxo-8-(trifluoromethyl)pyrazolo[1,5-a]pyrido[3,2-e]pyrimidin-4(5H)-yl)acetamide] | > 10 µM | 0.016 g | −9.81% |

— patent publication US20230118497A1, “PYRAZOLE-CONTAINING POLYCYCLIC DERIVATIVE INHIBITOR, PREPARATION METHOD THEREFOR AND APPLICATION THEREOF” (Shanghai Hansoh Biomedical Co., Ltd., priority 2019, published 2023)
